In this assay the target is Human Full Length PARG (Homo sapiens (Human), UniProt Q86W56). Nature of the assay: PARG assay (in vitro enzyme, TR-FRET). The conditions noted are these: PARG biochemical activity; read-out: PARG_EC50_ENZYME. Here is the method:
PARG In vitro assays were conducted in a total volume of 15 ul in a standard 384 well format. 5 ul of Human Full Length PARG (Produced internally by Astra Zeneca), used at a final reaction concentration of […], was added to 5 ul of Ribosylated PARP substrate (also produced internally by Astra Zeneca) at final reaction concentration of 4.5 nM in assay buffer (50 mM Tris pH7.4, 0.1 mg/ml BSA, 3 mM EDTA, 0.4 mM EGTA, 1 mM DTT, 0.01% Tween 20, 50 mM KCl). The reaction was incubated at room temperature for 10 minutes and then 5 ul detection reagent was added. Detection Reagent consists of 42 nM MAb Anti-6HIS XL665 (CisBio: 61 HISXLB) and 2.25 nM Streptavidin Europium Cryptate (CisBio: 610SAKLB), both at 3× working stock concentrations (final concentrations of 14 nM and 0.75 nM respectively), in a detection buffer of 50 mM Tris pH7.4, BSA at 0.1 mg/ml and KF at 100 mM. Following incubation at room temperature for 60 minutes in the dark, TR-FRET signal was measured at Ex 340 and Em 665 and Em 620. A ratio was calculated as Em665/EM620x104 for each well and used to calculate percent inhibition for test compounds.

Experimental findings from patent US10995073B2 (CANCER RESEARCH TECHNOLOGY LIMITED, priority 2014, dated 2021) are described below.

Chain of Human Full Length PARG (Q86W56 whole entry): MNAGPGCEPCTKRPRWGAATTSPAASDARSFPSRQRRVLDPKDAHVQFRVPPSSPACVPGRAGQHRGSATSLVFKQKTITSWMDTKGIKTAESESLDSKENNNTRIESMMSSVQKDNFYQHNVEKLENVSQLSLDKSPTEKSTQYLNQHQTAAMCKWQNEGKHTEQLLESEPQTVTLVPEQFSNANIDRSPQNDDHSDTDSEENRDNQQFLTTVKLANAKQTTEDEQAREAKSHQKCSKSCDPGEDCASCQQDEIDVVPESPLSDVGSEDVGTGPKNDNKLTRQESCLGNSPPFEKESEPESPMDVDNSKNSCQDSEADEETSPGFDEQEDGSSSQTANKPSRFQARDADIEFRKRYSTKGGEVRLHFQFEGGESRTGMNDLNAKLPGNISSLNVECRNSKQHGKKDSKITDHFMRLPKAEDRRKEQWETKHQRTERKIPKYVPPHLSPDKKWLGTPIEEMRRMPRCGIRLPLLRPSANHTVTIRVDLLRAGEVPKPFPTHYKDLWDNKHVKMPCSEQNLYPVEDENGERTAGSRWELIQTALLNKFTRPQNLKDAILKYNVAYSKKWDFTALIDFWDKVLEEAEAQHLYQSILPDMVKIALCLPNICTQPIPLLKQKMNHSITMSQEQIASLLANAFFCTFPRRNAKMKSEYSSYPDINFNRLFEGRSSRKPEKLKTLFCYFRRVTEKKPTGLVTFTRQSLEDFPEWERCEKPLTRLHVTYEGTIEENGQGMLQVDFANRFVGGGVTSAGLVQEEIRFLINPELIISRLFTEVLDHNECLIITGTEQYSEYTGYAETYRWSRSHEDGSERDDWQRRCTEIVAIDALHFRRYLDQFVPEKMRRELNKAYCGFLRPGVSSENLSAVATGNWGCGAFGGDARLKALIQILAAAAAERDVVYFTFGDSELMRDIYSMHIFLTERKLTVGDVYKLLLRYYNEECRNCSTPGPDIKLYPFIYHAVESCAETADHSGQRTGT

On to `Cn1c(=O)n(-c2nnc(N)s2)c2cc(S(=O)(=O)NC3(C)CC3)ccc21` [Example 81, 3-(5-Amino-1,3,4-thiadiazol-2-yl)-1-methyl-N-(1-methylcyclopropyl)-2-oxo-benzimidazole-5-sulfonamide], for which the EC50 came to 1.55 µM.
Turning to `Cc1nsc(-n2c(=O)n(C)c3ccc(S(=O)(=O)NC4(CF)CC4)cc32)n1` [Example 177], the EC50 turned out to be 12.2 µM.
